In patent publication US20250099420A1, “SMALL MOLECULE MODULATORS OF GPR139 COMPLEX” (University of Florida Research Foundation, Incorporated, priority 2022, published 2025):
Like-named read-outs stand apart in the source and are kept apart here.

Experiments:
GPR139 = target: T1, GPR139 (Homo sapiens, UniProt Q6DWJ6); experiment: GPR139 Agonist titration / agonist counterscreen assay (calcium detection, HEK-GPR139 cells); assay type: cell-based; parameters: expressed in transfected cells; host or cells: HEK Aequorin cells, Maxcyte transient transfection; conditions: GPR139 Agonist Activity; for EC50: read-out: EC50; for Averaged Max % Response (±St. Dev.): activity relative to known control
T1 sequence (Q6DWJ6 1-353): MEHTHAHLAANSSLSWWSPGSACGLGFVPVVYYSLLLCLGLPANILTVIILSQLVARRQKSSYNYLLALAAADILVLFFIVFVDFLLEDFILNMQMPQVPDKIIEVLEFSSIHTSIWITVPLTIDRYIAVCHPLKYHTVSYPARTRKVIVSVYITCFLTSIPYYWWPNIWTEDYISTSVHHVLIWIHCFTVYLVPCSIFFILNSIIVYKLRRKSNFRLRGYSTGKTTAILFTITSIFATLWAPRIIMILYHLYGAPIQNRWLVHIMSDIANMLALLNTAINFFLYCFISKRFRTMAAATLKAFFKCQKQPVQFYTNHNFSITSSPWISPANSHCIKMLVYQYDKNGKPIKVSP
Experimental: GPR activity was assessed using a calcium detection assay. […] Negative control samples were treated with DMSO. […] Intracellular calcium was measured using Calcium 5.

parental HEK cells = experiment: HEK parental Agonist Counterscreen Assay (non-transfected cells); assay type: cell-based; conditions: for Averaged Max % Response (±St. Dev.): activity relative to known control
Source text: The high control for the agonist counterscreen was Forskolin not acetylcholine.

[1] = Homo sapiens, HEK293, HEK Agonist Activity section of Table 4 (parental HEK counterscreen)
[2] = values printed in E-notation without unit
[3] = HEK Agonist Activity section of Table 4 (parental HEK counterscreen)
[4] = Homo sapiens, HEK293, HEK Agonist Activity, parental non-transfected HEK cells
[5] = HEK Agonist Activity, parental non-transfected HEK cells

SMILES | Averaged Max % Response (±St. Dev.) (GPR139) | Lipophilic Efficiency (logD) (parental HEK cells; HEK Agonist Activity section) | Lipophilic Efficiency (logP) (parental HEK cells; HEK Agonist Activity section) | Averaged Max % Response (±St. Dev.) (parental HEK cells; HEK Agonist Activity section) | EC50 (parental HEK cells; [1]) | Lipophilic Efficiency (logD) (GPR139; based on logD) | Lipophilic Efficiency (logP) (GPR139; based on logP) | Hill Slope (GPR139; fitted dose-response curve) | Efficiency Ligand (GPR139; ligand efficiency) | EC50 (GPR139; [2]) | Lipophilic Efficiency (logD) (parental HEK cells; HEK Agonist Activity) | Lipophilic Efficiency (logP) (parental HEK cells; HEK Agonist Activity) | Averaged Max % Response (±St. Dev.) (parental HEK cells; HEK Agonist Activity) | further results
O=C(CNC(=O)c1ccc(Br)o1)NC1CCCc2ccccc21 (stereo not drawn) [SR-01000064101] | 90.33 ± 2.09% | 2.64 | 2.64 | 10.45 ± 2.67% | > 14.9 µM |  |  |  |  |  |  |  |  | Efficiency Ligand (GPR139): 0.38; Hill Slope (GPR139): 1.15; Lipophilic Efficiency (logD) (GPR139): 4.09; Lipophilic Efficiency (logP) (GPR139): 4.09; EC50 (GPR139; HEK-GPR139 cells): 527 nM
CC1(c2ccc3c(c2)OCO3)NC(=O)N(CC(=O)NC2CCCC2)C1=O (stereo not drawn) [SR-01000065547] | 87.19 ± 17.95% | 3.84 | 3.84 | 2.31 ± 13.81% | > 14.1 µM |  |  |  |  |  |  |  |  | Efficiency Ligand (GPR139): 0.34; Hill Slope (GPR139): 0.59; Lipophilic Efficiency (logD) (GPR139): 5.32; Lipophilic Efficiency (logP) (GPR139): 5.32; EC50 (GPR139; HEK-GPR139 cells): 465 nM
O=C(CCCOc1ccc(Cl)cc1Cl)NNC(=O)Cc1ccc2c(c1)OCCO2 [SR-01000065653] | 89.15 ± 7.00% | 1.88 | 1.87 | −8.07 ± 6.14% |  | 4.06 | 4.05 | 1.10 | 0.34 | 94.4 nM |  |  |  | EC50 (parental HEK cells; [3]): > 14.1 µM
CC1(c2ccc3ccccc3c2)NC(=O)N(CC(=O)Nc2ccccc2Cl)C1=O (stereo not drawn) [SR-01000066950] | 117.24 ± 4.32% |  |  |  |  | 3.74 | 3.74 | 0.61 | 0.36 | 40.5 nM | 1.21 | 1.21 | 2.95 ± 8.11% | EC50 (parental HEK cells; [4]): > 13.8 µM
O=C(CCCOc1ccc(Cl)cc1Cl)NNC(=O)Cc1ccccc1 [SR-01000067982] | 88.62 ± 11.28% | 1.37 | 1.37 | 10.05 ± 3.22% | > 14.8 µM | 3.55 | 3.54 | 0.94 | 0.39 | 98.6 nM |  |  |  | 
CN(Cc1ccc[nH]1)C(=O)CN1C(=O)NC2(CCc3ccccc3C2)C1=O (stereo not drawn) [SR-01000068179] | 87.03 ± 9.26% | 2.52 | 2.52 | 2.62 ± 3.03% | > 14.7 µM |  |  |  |  |  |  |  |  | Efficiency Ligand (GPR139): 0.31; Hill Slope (GPR139): 0.84; Lipophilic Efficiency (logD) (GPR139): 3.64; Lipophilic Efficiency (logP) (GPR139): 3.64; EC50 (GPR139; HEK-GPR139 cells): 1100 nM
CN(Cc1cccs1)C(=O)CN1C(=O)NC(C)(c2ccc3c(c2)OCO3)C1=O (stereo not drawn) [SR-01000068229] | 112.57 ± 13.42% |  |  |  |  | 7.01 | 7.01 | 0.64 | 0.43 | 2.9 nM | 3.29 | 3.29 | −2.42 ± 7.08% | EC50 (parental HEK cells; [5]): > 15.4 µM
CC1C(CC(=O)NCC(=O)CCC2=Cc3ccccc3C2)=Nc2ccccc21 (stereo not drawn) [SR-01000068608] | 124.32 ± 15.50% | 2.46 | 2.46 | 24.17 ± 25.98% | > 14.3 µM | 4.52 | 4.51 | 0.93 | 0.34 |  |  |  |  | 
Cc1cc(C(=O)NNC(=O)CNC(=O)Cc2cccc3ccccc23)c(C)o1 [SR-01000068718] | 119.00 ± 0.36% |  |  |  |  | 6.50 | 6.50 | 0.58 | 0.40 | 10.1 nM | 3.34 | 3.34 | 20.24 ± 11.96% | EC50 (parental HEK cells; [4]): > 14.9 µM
O=C(CCC(=O)c1ccco1)NNC(=O)CN1CCCc2ccccc21 [SR-01000068721] | 109.68 ± 5.18% |  |  |  |  | 5.32 | 5.32 | 0.71 | 0.40 | 34.7 nM | 2.68 | 2.68 | 8.82 ± 10.34% | EC50 (parental HEK cells; [4]): > 15.2 µM
Cn1c(CC(=O)NNC(=O)CSc2ccc3ccccc3c2)nc2ccccc21 [SR-01000068729] | 126.00 ± 7.94% |  |  |  |  | 6.03 | 6.03 |  | 0.44 | > 0.779 nM | 1.73 | 1.73 | −3.41 ± 1.08% | EC50 (parental HEK cells; [5]): > 15.3 µM
O=C(COc1ccccc1F)NNC(=O)CSc1ccc2ccccc2c1 [SR-01000068761] | 123.40 ± 6.48% |  |  |  |  | 5.00 | 4.99 | 0.55 | 0.42 | 9.7 nM | 1.82 | 1.81 | 4.98 ± 10.48% | EC50 (parental HEK cells; [4]): > 14.7 µM
O=C(CCc1nc2ccccc2s1)NNC(=O)C1CCCCC1 [SR-01000068916] | 118.50 ± 16.12% | 2.04 | 2.04 | 19.72 ± 5.30% | > 15.3 µM | 4.23 | 4.23 | 0.84 | 0.43 | 98.9 nM |  |  |  | 
COc1cc(C(=O)NNC(=O)CCc2c[nH]c3ccccc23)ccc1OC(C)C [SR-01000068919] | 93.45 ± 21.44% | 1.78 | 1.78 | 39.50 ± 8.66% | > 14.2 µM |  |  |  |  |  |  |  |  | Efficiency Ligand (GPR139): 0.31; Hill Slope (GPR139): 0.88; Lipophilic Efficiency (logD) (GPR139): 3.27; Lipophilic Efficiency (logP) (GPR139): 3.27; EC50 (GPR139; HEK-GPR139 cells): 460 nM
Cc1cc(C(=O)CCC(=O)NNC(=O)c2ccc(COc3ccccc3)cc2)c(C)o1 [SR-01000069259] | 126.19 ± 25.88% |  |  |  |  | 3.74 | 3.74 |  | 0.37 | > 6.5 nM | 0.40 | 0.40 | 7.00 ± 9.99% | EC50 (parental HEK cells; [4]): > 14.2 µM
O=C(CSc1ccc2ccccc2c1)NNC(=O)c1ccc(Br)s1 [SR-01000069345] | 114.67 ± 3.82% |  |  |  |  | 4.37 | 4.37 | 1.18 | 0.49 | 3.7 nM | 0.77 | 0.77 | 15.34 ± 2.20% | EC50 (parental HEK cells; [5]): > 14.7 µM
Cc1ccccc1SCC(=O)NNC(=O)c1ccc(Br)s1 [SR-01000069352] | 97.44 ± 1.25% | 1.25 | 1.25 | 11.25 ± 2.29% | > 14.6 µM | 3.03 | 3.02 | 1.19 | 0.44 | 248 nM |  |  |  | 
Cc1ccc(SCC(=O)NNC(=O)CCC(=O)c2cccs2)cc1 [SR-01000069391] | 99.00 ± 11.26% | 2.43 | 2.43 | 12.32 ± 6.09% |  | 4.39 | 4.39 | 0.48 | 0.39 | 171 nM |  |  |  | EC50 (parental HEK cells; [3]): > 15.5 µM
Cc1ccc(OCC(=O)NNC(=O)CN(C)S(=O)(=O)c2ccc(C)cc2)cc1 [SR-01000069435] | 94.34 ± 21.26% | 3.09 | 3.08 | 14.76 ± 3.78% | > 14.6 µM | 5.44 | 5.43 | 0.66 | 0.36 |  |  |  |  | 
